Calls of active or inactive are those of the source.
Experiments:
Assay type in all cases: functional, cell-based
SK-HEP1 = assay: Cytotoxicity against human SK-HEP1 cells assessed as reduction in cell viability at 40 uM measured after 72 hrs by MTS assay
COLO 205 = assay: Cytotoxicity against human COLO 205 cells assessed as reduction in cell viability at 40 uM measured after 72 hrs by MTS assay
HCT-8 = assay: Cytotoxicity against human HCT-8 cells assessed as reduction in cell viability at 40 uM measured after 72 hrs by MTS assay
HCT-116 = assay: Cytotoxicity against human HCT-116 cells assessed as reduction in cell viability at 40 uM measured after 72 hrs by MTS assay
KM12 = assay: Cytotoxicity against human KM12 cells assessed as reduction in cell viability at 40 uM measured after 72 hrs by MTS assay
RKO = assay: Cytotoxicity against human RKO cells assessed as reduction in cell viability at 40 uM measured after 72 hrs by MTS assay
SW480 = assay: Cytotoxicity against human SW480 cells assessed as reduction in cell viability at 40 uM measured after 72 hrs by MTS assay
SW-620 = assay: Cytotoxicity against human SW-620 cells assessed as reduction in cell viability at 40 uM measured after 72 hrs by MTS assay
BT-549 = assay: Cytotoxicity against human BT-549 cells assessed as reduction in cell viability at 40 uM measured after 72 hrs by MTS assay
HCC38 = assay: Cytotoxicity against human HCC38 cells assessed as reduction in cell viability at 40 uM measured after 72 hrs by MTS assay
HCC70 = assay: Cytotoxicity against human HCC70 cells assessed as reduction in cell viability at 40 uM measured after 72 hrs by MTS assay
HCC1428 = assay: Cytotoxicity against human HCC1428 cells assessed as reduction in cell viability at 40 uM measured after 72 hrs by MTS assay
Hs-578T = assay: Cytotoxicity against human Hs-578T cells assessed as reduction in cell viability at 40 uM measured after 72 hrs by MTS assay
MDA-MB-231 = assay: Cytotoxicity against human MDA-MB-231 cells assessed as reduction in cell viability at 40 uM measured after 72 hrs by MTS assay
MDA-MB-435 = assay: Cytotoxicity against human MDA-MB-435 cells assessed as reduction in cell viability at 40 uM measured after 72 hrs by MTS assay
MDA-MB-468 = assay: Cytotoxicity against human MDA-MB-468 cells assessed as reduction in cell viability at 40 uM measured after 72 hrs by MTS assay
MCF7 = assay: Cytotoxicity against human MCF7 cells assessed as reduction in cell viability at 40 uM measured after 72 hrs by MTS assay
SK-BR-3 = assay: Cytotoxicity against human SK-BR-3 cells assessed as reduction in cell viability at 40 uM measured after 72 hrs by MTS assay
T47D = assay: Cytotoxicity against human T47D cells assessed as reduction in cell viability at 40 uM measured after 72 hrs by MTS assay

Measured: Activity

CC1=C[C@H](c2cc3ccc(=O)oc3cc2O[C@@H]2O[C@H](CO)[C@@H](O)[C@H](O)[C@H]2O)[C@](C)(/C=C/c2cc3ccc(=O)oc3cc2O[C@@H]2O[C@H](CO[C@@H]3OC[C@](O)(CO)[C@H]3O)[C@@H](O)[C@H](O)[C@H]2O)CC1
inactive: all assays above

CC1=C[C@@H](c2cc3ccc(=O)oc3cc2O[C@@H]2O[C@H](COC3OC[C@@H](O)[C@H](O)[C@H]3O)[C@@H](O)[C@H](O)[C@H]2O)[C@@](C)(/C=C/c2cc3ccc(=O)oc3cc2O[C@@H]2O[C@H](CO)[C@@H](O)[C@H](O)[C@H]2O)CC1 (some centres not stated)
inactive: all assays above

CC1=C[C@@H](c2cc3ccc(=O)oc3cc2O[C@@H]2O[C@H](CO)[C@@H](O)[C@H](O)[C@H]2O)[C@@](C)(/C=C/c2cc3ccc(=O)oc3cc2O[C@@H]2O[C@H](CO)[C@@H](O)[C@H](O)[C@H]2O)CC1
inactive: all assays above
